Experimental data reported in patent publication US20030215462A1, “Use of UGT inhibitors to increase bioavailability” (priority 2001, published 2003).

Key:
[1] = test system: UGT enzymes of human liver microsomes; test: Inhibition of raloxifene glucuronidation (G1, G2) in human liver microsomes; assay type: biochemical
From the text: (§1) Compounds were eluted using a binary solvent gradient system. […] Solvent B was methanol. […] Detection was at 280 nm.

[2] = test system: T1, UGT enzymes of human liver microsomes; test: Inhibition of 7-HFC glucuronidation in human liver microsomes; assay type: biochemical; details: for % of control metabolism (SD, n = 3), 7-HFC glucuronidation: 7-HFC 50 μM, human liver microsomes 100 μg/ml, 15 min
T1 construct: percentage of control metabolism, 7-HFC glucuronidation; percentage of control metabolism, 7-HFC glucuronidation

[3] = test system: UGT enzymes of pooled human jejunum microsomes; test: Inhibition of raloxifene glucuronidation (G1, G2) in pooled human jejunum microsomes; assay type: biochemical; details: jejunum HJ61; inhibitor 10 μM
Procedure: as §1
Standardized incubations utilized […] microsomal protein, 1 mM UDPGA and a 30 min incubation time.

UGT1A9 = target: T2, UGT1A9 (Homo sapiens, UniProt O60656); test: Inhibition of raloxifene glucuronidation by recombinant UGT1A9 Supersomes; details: for Inhibition of raloxifene glucuronidation, UGT1A9, first line per inhibitor (G1): first line (G1, metabolite not given); for Inhibition of raloxifene glucuronidation, UGT1A9, first line per inhibitor (G1) / Inhibition of raloxifene glucuronidation, UGT1A9, second line per inhibitor (G2): raloxifene 50 μM, 250 μg/ml Supersomes, 1 mM UDPGA, 15 min; for activity at 15 min, 2 μM / activity at 15 min, 5 µM / activity at 15 min, 10 µM / activity at 15 min, 25 µM / activity at 15 min, 50 µM: human, Supersomes with recombinant human UGT1A9, pH 7.5, probe raloxifene 50 μM; for Inhibition of raloxifene glucuronidation, UGT1A9, second line per inhibitor (G2): second line (G2, metabolite not given)
T2 sequence (O60656 26-530): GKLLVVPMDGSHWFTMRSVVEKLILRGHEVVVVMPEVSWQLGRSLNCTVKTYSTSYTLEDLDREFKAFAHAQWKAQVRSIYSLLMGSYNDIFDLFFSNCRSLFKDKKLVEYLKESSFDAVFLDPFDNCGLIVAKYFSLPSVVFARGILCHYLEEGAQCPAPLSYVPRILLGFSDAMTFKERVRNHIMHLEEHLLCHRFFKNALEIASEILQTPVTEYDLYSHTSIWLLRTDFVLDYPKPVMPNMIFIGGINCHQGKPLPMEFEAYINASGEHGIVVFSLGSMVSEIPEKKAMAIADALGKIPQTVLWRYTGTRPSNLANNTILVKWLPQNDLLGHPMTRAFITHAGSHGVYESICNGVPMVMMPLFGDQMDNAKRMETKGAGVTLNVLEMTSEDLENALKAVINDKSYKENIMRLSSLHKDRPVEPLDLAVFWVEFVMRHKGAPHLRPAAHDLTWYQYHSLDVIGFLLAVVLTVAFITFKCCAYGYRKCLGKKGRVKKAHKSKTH

[4] = test system: UGT enzymes of pooled human jejunum microsomes; test: Inhibition of 2ME2 glucuronidation (MG1) in pooled human jejunum microsomes; assay type: biochemical; details: jejunum HJ61, 2ME2 50 μM
From the text: Compounds were eluted using a binary solvent gradient system where solvent A was dilute phosphoric acid (pH 3) and solvent B was 80:20 acetonitrile-methanol. […] Detection was at 280 nm.

[5] = liver lot 062101, inhibitor 10 μM
[6] = liver lot 083000, inhibitor 10 μM
[7] = raloxifene 50 μM, inhibitor 10 μM
[8] = raloxifene 50 μM, inhibitor 25 μM
[9] = raloxifene 50 μM, inhibitor 50 μM
[10] = raloxifene 50 μM, inhibitor 100 μM

CC/C(=C(/CC)c1ccc(O)cc1)c1ccc(O)cc1 [Diethylstilbestrol, reference compound]
% of control metabolism, raloxifene G1 [1, 5]: 89 (2) % | % of control metabolism, raloxifene G2 [1, 5]: 83 (2) % | % of control metabolism, raloxifene G1 [1, 6]: 58 (3) % | % of control metabolism, raloxifene G2 [1, 6]: 111 (7) % | % of control metabolism, raloxifene G1 [1, 7]: 58 (3) % | % of control metabolism, raloxifene G2 [1, 7]: 111 (7) % | % of control metabolism, raloxifene G1 [1, 8]: 36 (1) % | % of control metabolism, raloxifene G2 [1, 8]: 100 (5) % | % of control metabolism, raloxifene G1 [1, 9]: 14 (1) % | % of control metabolism, raloxifene G2 [1, 9]: 58 (2) % | % of control metabolism, raloxifene G1 [1, 10]: 8 (0) % | % of control metabolism, raloxifene G2 [1, 10]: 43 (0) % | percentage of control metabolism, 7-HFC glucuronidation ([2]; inhibitor 25 μM): 57 (1) % | % of control metabolism (SD, n = 3), 7-HFC glucuronidation ([2]; inhibitor 25 μM): 57 (1) % | percentage of control metabolism, 7-HFC glucuronidation ([2]; inhibitor 50 μM): 34 (2) % | % of control metabolism (SD, n = 3), 7-HFC glucuronidation ([2]; inhibitor 50 μM): 34 (2) % | percentage of control metabolism, 7-HFC glucuronidation ([2]; inhibitor 100 μM): 11 (1) % | % of control metabolism (SD, n = 3), 7-HFC glucuronidation ([2]; inhibitor 100 μM): 11 (1) % | percentage of control metabolism, 7-HFC glucuronidation ([2]; inhibitor 200 μM): 1 (0) % | % of control metabolism (SD, n = 3), 7-HFC glucuronidation ([2]; inhibitor 200 μM): 1 (0) % | percentage of control metabolism, 7-HFC glucuronidation ([2]; inhibitor 500 μM): 0.1 (0) % | % of control metabolism (SD, n = 3), 7-HFC glucuronidation ([2]; inhibitor 500 μM): 0.1 (0) % | % of control metabolism, raloxifene G1 [3]: 78 (0) % | % of control metabolism, raloxifene G2 [3]: 90 (4) % | Inhibition of raloxifene glucuronidation, UGT1A9, first line per inhibitor (G1) (UGT1A9; inhibitor 2 μM): 90 (0) | Inhibition of raloxifene glucuronidation, UGT1A9, first line per inhibitor (G1) (UGT1A9; inhibitor 5 μM): 86 (0) | Inhibition of raloxifene glucuronidation, UGT1A9, first line per inhibitor (G1) (UGT1A9; inhibitor 10 μM): 78 (3) | Inhibition of raloxifene glucuronidation, UGT1A9, first line per inhibitor (G1) (UGT1A9; inhibitor 25 μM): 49 (5) | Inhibition of raloxifene glucuronidation, UGT1A9, first line per inhibitor (G1) (UGT1A9; inhibitor 50 μM): 31 (2) | activity at 15 min, 2 μM (UGT1A9; formation of glucuronide G1, % of control metabolism, raloxifene G1, UGT1A9, inhibitor 2 μM): 90% | activity at 15 min, 5 µM (UGT1A9; formation of glucuronide G1, % of control metabolism, raloxifene G1, UGT1A9, inhibitor 5 μM): 86% | activity at 15 min, 10 µM (UGT1A9; formation of glucuronide G1, % of control metabolism, raloxifene G1, UGT1A9, inhibitor 10 μM): 78% | activity at 15 min, 25 µM (UGT1A9; formation of glucuronide G1, % of control metabolism, raloxifene G1, UGT1A9, inhibitor 25 μM): 49% | activity at 15 min, 50 µM (UGT1A9; formation of glucuronide G1, % of control metabolism, raloxifene G1, UGT1A9, inhibitor 50 μM): 31% | activity at 15 min, 2 μM (UGT1A9; formation of glucuronide G2, % of control metabolism, raloxifene G2, UGT1A9, inhibitor 2 μM): 175% | activity at 15 min, 5 µM (UGT1A9; formation of glucuronide G2, % of control metabolism, raloxifene G2, UGT1A9, inhibitor 5 μM): 260% | activity at 15 min, 10 µM (UGT1A9; formation of glucuronide G2, % of control metabolism, raloxifene G2, UGT1A9, inhibitor 10 μM): 290% | activity at 15 min, 25 µM (UGT1A9; formation of glucuronide G2, % of control metabolism, raloxifene G2, UGT1A9, inhibitor 25 μM): 309% | activity at 15 min, 50 µM (UGT1A9; formation of glucuronide G2, % of control metabolism, raloxifene G2, UGT1A9, inhibitor 50 μM): 245% | Inhibition of raloxifene glucuronidation, UGT1A9, second line per inhibitor (G2) (UGT1A9; inhibitor 2 μM): 175 (0) | Inhibition of raloxifene glucuronidation, UGT1A9, second line per inhibitor (G2) (UGT1A9; inhibitor 5 μM): 260 (3) | Inhibition of raloxifene glucuronidation, UGT1A9, second line per inhibitor (G2) (UGT1A9; inhibitor 10 μM): 290 (9) | Inhibition of raloxifene glucuronidation, UGT1A9, second line per inhibitor (G2) (UGT1A9; inhibitor 50 μM): 245 (3) | residual metabolism (% of control), 2ME2 MG1 ([4]; inhibitor 1 μM): 93 (4) % | residual metabolism (% of control), 2ME2 MG1 ([4]; inhibitor 10 μM): 75 (1) %
